Data from patent publication US5399565A, “Pyrazolidinone CCK and gastrin antagonists and pharmaceutical formulations therof” (priority 1993, dated 1995).

Tests used:
[1] = molecular target: T1, peripheral type CCK receptors in rat pancreas (Rattus norvegicus, UniProt P30551); test: Binding to peripheral type CCK receptors in rat pancreas (3H-L-364,718); conditions: for inhibition at 10 µM: read-out: Pancreas Percent Inhibition
T1 construct: Pancreas was obtained from male Sprague-Dawley rats; from tissue; host or cells: pancreas membranes of male Sprague-Dawley rats
T1 sequence (P30551 1-444): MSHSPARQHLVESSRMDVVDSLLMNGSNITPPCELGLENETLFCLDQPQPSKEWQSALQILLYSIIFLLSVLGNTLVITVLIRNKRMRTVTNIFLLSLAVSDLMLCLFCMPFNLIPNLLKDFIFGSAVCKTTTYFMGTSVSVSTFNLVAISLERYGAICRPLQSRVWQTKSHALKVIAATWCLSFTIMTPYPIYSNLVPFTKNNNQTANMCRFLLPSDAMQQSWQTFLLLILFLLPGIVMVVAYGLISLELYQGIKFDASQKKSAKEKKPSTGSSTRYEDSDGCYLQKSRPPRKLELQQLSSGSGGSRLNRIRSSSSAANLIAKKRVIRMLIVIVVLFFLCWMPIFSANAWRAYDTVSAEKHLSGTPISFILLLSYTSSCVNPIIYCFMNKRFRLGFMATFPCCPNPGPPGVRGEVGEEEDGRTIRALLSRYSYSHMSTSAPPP
How it was run: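 Washed pancreatic membranes from male Sprague-Dawley rats (150-200 g) incubated 1 h at room temperature with 0.4-0.6 nM ³H-L-364,718 in 50 mM Tris pH 7.4, 5 mM MgCl2, bacitracin, 5 mM DTT. Bound radioactivity counted after filtration; nonspecific binding defined with 100 nM L-364,718; IC50 determined.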

pKa by titration = conditions: for pKa: 2:1 dmf:h2o, titration pKa
brain CCK receptor = molecular target: T2, brain CCK receptor (Mus musculus, UniProt P56481); test: CCK receptor binding, mouse brain membranes (125I-CCK-8 sulfate); conditions: for IC50: mouse brain membranes, read-out: Brain IC50; for inhibition at 10 µM: read-out: Brain Percent Inhibition
T2 construct: from tissue; host or cells: forebrain membranes of male CF-1 mice
T2 sequence (P56481 1-453): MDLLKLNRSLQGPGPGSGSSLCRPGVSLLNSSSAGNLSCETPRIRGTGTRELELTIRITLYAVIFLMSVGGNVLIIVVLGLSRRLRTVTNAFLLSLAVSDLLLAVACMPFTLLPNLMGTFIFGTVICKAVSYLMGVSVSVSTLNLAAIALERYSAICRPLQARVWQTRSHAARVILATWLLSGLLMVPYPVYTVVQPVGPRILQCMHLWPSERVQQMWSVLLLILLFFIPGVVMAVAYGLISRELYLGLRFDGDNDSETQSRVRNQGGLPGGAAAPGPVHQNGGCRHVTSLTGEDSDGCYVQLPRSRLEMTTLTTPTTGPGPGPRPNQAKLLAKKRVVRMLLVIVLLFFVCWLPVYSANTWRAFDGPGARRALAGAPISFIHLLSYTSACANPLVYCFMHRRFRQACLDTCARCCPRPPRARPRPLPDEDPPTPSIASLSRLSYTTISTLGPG

gastrin receptor = molecular target: T3, gastrin receptor (Cavia porcellus, UniProt H0VZC5); test: Gastrin binding to guinea pig stomach mucosal membranes (125I-gastrin I); conditions: guinea pig stomach mucosal membranes; read-out: Gastrin IC50
T3 construct: Guinea pig stomach fundus was obtained from male Hartley guinea pigs; from tissue; host or cells: stomach fundus mucosal membranes of male Hartley guinea pigs
T3 sequence (H0VZC5 1-426): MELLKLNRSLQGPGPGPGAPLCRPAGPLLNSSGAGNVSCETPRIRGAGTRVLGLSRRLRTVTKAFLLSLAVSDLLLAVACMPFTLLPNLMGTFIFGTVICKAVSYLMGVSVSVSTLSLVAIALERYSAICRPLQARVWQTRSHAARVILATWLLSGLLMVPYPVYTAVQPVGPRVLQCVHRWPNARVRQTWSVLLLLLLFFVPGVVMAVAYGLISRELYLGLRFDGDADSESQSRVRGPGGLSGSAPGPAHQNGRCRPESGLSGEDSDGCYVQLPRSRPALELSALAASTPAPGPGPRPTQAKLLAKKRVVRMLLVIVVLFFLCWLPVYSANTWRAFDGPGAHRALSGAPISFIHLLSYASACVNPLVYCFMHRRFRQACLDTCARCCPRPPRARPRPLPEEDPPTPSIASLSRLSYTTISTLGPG
Procedure: The method used for gastrin binding to guinea pig stomach mucosal membranes was similar to that described by Takeuchi, Speir and Johnson (Am. J. Physiol. 237(3): E284-E294, 1979). Guinea pig stomach fundus was obtained from male Hartley guinea pigs, 300-350 g, and the mucosa was scraped off with a glass slide. The mucosa was homogenized in 50 mM Tris buffer, pH 7.4, containing 1 mM phenylmethanesulfonyl fluoride using a Dounce glass homogenizer, and the suspension was centrifuged at 40,000 g for 10 min. The resulting pellet was resuspended and centrifuged once more, the final pellet was then suspended in 100 ml assay buffer per 1 guinea pig stomach to give a protein concentration of 200-300 μg/200 μl. The assay buffer consisted of 50 mM Tris buffer, pH 7.4, 5 mM MgCl2, 0.14 mg/ml bacitracin, and 1 μg/ml each of leupeptin, chymostatin, aprotinin and pepstatin. Reagent volumes for the assay were the same as those used for CCK binding to brain membranes. The radioactive ligand was 20 pM ^125 I-gastrin I, from DuPont NEN (NEX-176). The samples were incubated 3 hours at room temperature and filtered and counted as described for CCK binding to brain membranes. Compound samples were prepared and IC-50 values were determined as described for the CCK-brain receptor binding. Non-specific binding was determined using 100 nM gastrin I (human synthetic from Sigma Chemical Co.).

| Structure (SMILES) | inhibition at 10 µM [1] [%] | pKa (pKa by titration; first or only value) | IC50 (brain CCK receptor) [nM] | titration pKa (pKa by titration; 2:1 DMF:H2O, first or only value, listed as Diastereomer B) | pKa (pKa by titration; second value) | inhibition at 10 µM (brain CCK receptor) [%] | IC50 ([1]; rat pancreas) [nM] | IC50 (gastrin receptor) [nM] |
| --- | --- | --- | --- | --- | --- | --- | --- | --- |
| O=C1NN(C(=O)NCc2ccc(Cl)c(Cl)c2)[C@@H](c2ccccc2)[C@@H]1c1ccccc1 (relative stereo) [Example 7, 1-[(3,4-Dichlorobenzyl)aminocarbonyl]-4,5-diphenyl-3pyrazolidinone] | 81 | 8.4 | 1100 |  |  |  |  |  |
| C[C@@H](OC(=O)N1NC(=O)[C@@H](c2ccccc2)[C@@H]1c1ccccc1)c1ccccc1 (single isomer, unassigned) [Example 139B] |  |  |  | 8.6 |  |  |  |  |
| O=C1NN(c2nc3ccc(Cl)cc3s2)[C@@H](c2ccccc2)[C@@H]1c1ccccc1 (relative stereo) [Example 9, 1-[6-Chloro-2-benzothiazolyl]-4,5-diphenyl-3-pyrazolidinone] | 33 | 6.6 | 3700 |  |  |  |  |  |
| CN(C)c1ccc(NC(=O)N2NC(=O)[C@@H](c3ccccc3)[C@@H]2c2ccccc2)cc1 (relative stereo) [Example 2, 1-[(4-N,N-Dimethylaminophenyl)aminocarbonyl]-4,5-diphenyl-3-pyrazolidinone] | 14 | 4 | 290 |  | 7.9 |  |  |  |
| Nc1ccc(NC(=O)N2NC(=O)[C@@H](c3ccccc3)[C@@H]2c2ccccc2)cc1 (relative stereo) [Example 10, 1-[(4-Aminophenyl)aminocarbonyl]-4,5-diphenyl-3-pyrazolidinone] | 4 | 4.5 |  |  | 8.1 | 57 |  |  |
| O=C1NN(C(=O)c2cccc(C(F)(F)F)c2)[C@@H](c2ccccc2)[C@@H]1c1ccccc1 (relative stereo) [Example 5] | 18 | 7.15 |  |  |  | 77 |  |  |
| C[C@@H](OC(=O)N1NC(=O)[C@@H](c2ccccc2)[C@@H]1c1ccccc1)c1ccccc1 (single isomer, unassigned) [Example 139A] |  | 8.7 |  |  |  |  |  |  |
| O=C1NN(C(=S)Nc2ccc3ccccc3c2)[C@@H](c2ccccc2)[C@@H]1c1ccccc1 (relative stereo) [Example 136, 1-[(2-Naphthyl)aminothiocarbonyl]-4,5-diphenyl-3-pyrazolidinone] |  | 5.8 |  |  |  |  | 160 |  |
| O=C1NN(C(=O)c2cc3ccccc3[nH]2)[C@@H](c2ccccc2)[C@@H]1c1ccccc1 (relative stereo) [Example 14, 1-(Indole-2-carbonyl)-4,5-diphenyl-3-pyrazolidinone] | 60 | 6.75 | 2600 |  |  |  |  |  |
| O=C1NN(C(=O)Nc2ccc(Br)cc2)C(c2ccccc2)C1c1cccc2ccccc12 (stereo not shown) [Example 134] | 75 |  | 33 |  |  |  |  | 93 |
| O=C1NN(C(=O)Nc2ccc(C(F)(F)F)cc2)[C@@H](c2ccccc2)[C@@H]1c1ccccc1 (relative stereo) [Example 16] | 62 |  | 44 |  |  |  |  | 420 |
| O=C1NN(C(=O)Nc2ccc(Br)cc2)[C@@H](c2cccc(Cl)c2Cl)[C@H]1c1ccccc1 (relative stereo) [Example 117] | 64 |  | 400 |  |  |  |  | 1000 |
| O=C1NN(C(=O)Nc2ccc(Br)cc2)[C@@H](c2cccc(Cl)c2Cl)[C@@H]1c1ccccc1 (relative stereo) [Example 116] | 80 |  | 31 |  |  |  |  | 230 |
| O=C1NN(C(=O)Oc2ccc(Cl)cc2)[C@@H](c2ccccc2)[C@@H]1c1ccccc1 (relative stereo) [Example 6, 1-[(4-Chlorophenyl)oxycarbonyl]-4,5-diphenyl-3pyrazolidinone] | 15 | 7.8 | 4400 |  |  |  |  |  |
| O=C1NN(C(=O)Nc2ccc(OCc3ccccc3)cc2)[C@@H](c2ccccc2)[C@@H]1c1ccccc1 (relative stereo) [Example 3, 1-[(4-Benzyloxyphenyl)aminocarbonyl]-4,5-diphenyl-3-pyrazolidinone] | 34 | 7.7 | 54 |  |  |  |  | 1100 |
